Patent publication US8247211B2, “Glycopeptide antibiotics” (American Cyanamid Company, priority 2001, dated 2012)

How the values were obtained:
Assay in all cases: In vitro antibacterial evaluation: minimum inhibitory concentration (MIC), broth dilution method
Type in all cases: cell-based
Conditions in all cases: 18 hours at 35° C.
[1] = test system: Streptococcus sp.
In short: (§1)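 MIC by broth dilution in Mueller-Hinton II medium following NCCLS M7-A2. Inoculum was 5×10^5 CFU/mL and antibiotic was tested over 64-0.06 μg/mL. Gram-positive panel included clinical isolates resistant to methicillin, penicillin and/or vancomycin.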

[2] = test system: Staphylococcus sp.
In short: as §1

[3] = test system: Enterococcus sp.
In short: as §1

[4] = test system: Escherichia coli
In short: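 Test strains, among them recent clinical isolates carrying methicillin, penicillin and/or vancomycin resistance, were inoculated at 5×10^5 CFU/mL. A broth dilution series spanning 64-0.06 μg/mL in Muller-Hinton II […] (NCCLS M7-A2) defined the MIC as the lowest growth-inhibiting concentration.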

[5] = Streptococcus agalactiae (GC 4564)
[6] = Streptococcus pneumoniae (ATCC 6301)
[7] = Streptococcus pneumoniae (GC 1894)
[8] = Streptococcus pneumoniae (GC 4565)
[9] = Streptococcus pyogenes (GC 4563)
[10] = broth dilution, inoculum 5×10^5 CFU/mL
[11] = Enterococcus faecalis (GC 2242)
[12] = Enterococcus faecalis (GC 2691)
[13] = Enterococcus faecalis (GC 3059)

CC(c1ccccc1)C1NC(=O)CNC(=O)C(CO)NC(=O)C(C(O)C2CNC(=N)N2C2OC(CO)C(O)C(O)C2O)NC(=O)C(C(O)C2CNC(=N)N2)NC(=O)C(Cc2ccc(OC3OC(CO)C(OC4OC(COCc5cccs5)C(O)C(O)C4O)C(O)C3O)cc2)NC1=O (stereo not drawn) [Example 244, Cyclo[glycyl-β-methylphenylalanyl-O-[4-O-[6-O-(2-thienylmethyl)hexopyranosyl]hexopyranosyl]tyrosyl-3-(2-iminoimidazolidin-4-yl)seryl-3-(3-hexopyranosyl-2-iminoimidazolidin-4-yl)serylseryl]]
8 µg/mL: MIC Staphylococcus aureus (ATCC 29213) [2] | MIC Staphylococcus aureus (GC 1131) [2] | MIC Staphylococcus aureus (GC 3051) [2] | MIC Staphylococcus aureus (GC 4541) [2] | MIC Staphylococcus aureus (GC 4544) [2] | MIC Staphylococcus aureus (GC 4545) [2]
16 µg/mL: MIC Staphylococcus aureus (GC 3053) [2]
64 µg/mL: MIC Enterococcus faecalis (GC 3059) [3, 13] | MIC Enterococcus faecalis (GC 4554) [3] | MIC Enterococcus faecalis (GC 3059) [3, 10] | MIC Escherichia coli (GC 4559) [4]
0.5 µg/mL: MIC Streptococcus pneumoniae (GC 1894) [1, 7] | MIC Streptococcus pneumoniae (GC 1894) [1, 10]
1 µg/mL: MIC Streptococcus pneumoniae (ATCC 6301) [1, 6] | MIC Streptococcus pneumoniae (GC 4565) [1, 8] | MIC Streptococcus pneumoniae (ATCC 6301) [1, 10] | MIC Streptococcus pneumoniae (GC 4565) [1, 10] | MIC Staphylococcus aureus (GC 4542) [2]
32 µg/mL: MIC Enterococcus avium (GC 4558) [3] | MIC Enterococcus faecalis (ATCC 29212) [3] | MIC Enterococcus faecalis (GC 2242) [3, 11] | MIC Enterococcus faecalis (GC 2691) [3, 12] | MIC Enterococcus faecalis (GC 4552) [3] | MIC Enterococcus faecalis (GC 4553) [3] | MIC Enterococcus faecalis (GC 6189) [3] | MIC Enterococcus faecium (GC 2243) [3] | MIC Enterococcus faecium (GC 4556) [3] | MIC Enterococcus faecalis (GC 2242) [3, 10] | MIC Enterococcus faecalis (GC 2691) [3, 10]
2 µg/mL: MIC Streptococcus pyogenes (GC 4563) [1, 9] | MIC Streptococcus pyogenes (GC 4563) [1, 10] | MIC Coagulase Negative Staphylococcus (GC 4548) [2] | MIC Coagulase Negative Staphylococcus (GC 4549) [2] | MIC Coagulase Negative Staphylococcus (GC 6257) [2] | MIC Escherichia coli (GC 4560) [4]
4 µg/mL: MIC Streptococcus agalactiae (GC 4564) [1, 5] | MIC Streptococcus agalactiae (GC 4564) [1, 10] | MIC Coagulase Negative Staphylococcus (GC 4547) [2] | MIC Coagulase Negative Staphylococcus (GC 4551) [2] | MIC Staphylococcus aureus-SMITH (GC 4543) [2] | MIC Staphylococcus haemolyticus (GC 4546) [2] | MIC Enterococcus faecium (GC 4557) [3]
>64 µg/mL: MIC Escherichia coli (ATCC 25922) ([4]; Escherichia coli (ATCC 25922))

COc1ccc2cc(COC3C(OC4C(CO)OC(Oc5ccc(CC6NC(=O)C(C(C)c7ccccc7)NC(=O)CNC(=O)C(CO)NC(=O)C(CC7CNC(=N)N7C7OC(CO)C(O)C(O)C7O)NC(=O)C(CC7CNC(=N)N7)NC6=O)cc5)C(O)C4O)OC(CO)C(O)C3O)ccc2c1 (centres unmarked) [Example 245c, Cyclo[3-(2-iminoimidazolidin-4-yl)alanyl-3-(3-hexopyranosyl-2-iminoimidazolidin-4-yl)-alanylserylglycyl-62-methylphenylalanyl-O-[4-O-[2-O-[(6-methoxy-2-naphthyl)methyl]-hexopyranosyl]hexopyranosyl]tyrosyl]]
64 µg/mL: MIC Streptococcus pneumoniae (ATCC 6301) [1, 6] | MIC Streptococcus pneumoniae (GC 4565) [1, 8] | MIC Streptococcus pneumoniae (ATCC 6301) [1, 10] | MIC Streptococcus pneumoniae (GC 4565) [1, 10] | MIC Coagulase Negative Staphylococcus (GC 4549) [2] | MIC Coagulase Negative Staphylococcus (GC 6257) [2] | MIC Enterococcus faecium (GC 4557) [3]
32 µg/mL: MIC Streptococcus pneumoniae (GC 1894) [1, 7] | MIC Streptococcus pneumoniae (GC 1894) [1, 10] | MIC Escherichia coli (GC 4560) [4]

CC(c1ccccc1)C1NC(=O)CNC(=O)C(CO)NC(=O)C(CC2CNC(=N)N2C2OC(CO)C(O)C(O)C2O)NC(=O)C(CC2CNC(=N)N2)NC(=O)C(Cc2ccc(OC3OC(CO)C(OC4OC(COCc5ccc(OCc6ccccc6)cc5)C(O)C(O)C4O)C(O)C3O)cc2)NC1=O (stereo not drawn) [Example 246, Cyclo[3-(2-iminoimidazolidin-4-yl)alanyl-3-(3-hexopyranosyl-2-iminoimidazolidin-4-yl)-alanylserylglycyl-β-methylphenylalanyl-O-[4-O-[6-O-[4-(phenylmethoxy)benzyl]hexopyranosyl]hexopyranosyl]tyrosyl]]
4 µg/mL: MIC Streptococcus pyogenes (GC 4563) [1, 9] | MIC Streptococcus pyogenes (GC 4563) [1, 10] | MIC Coagulase Negative Staphylococcus (GC 4547) [2] | MIC Coagulase Negative Staphylococcus (GC 4548) [2] | MIC Coagulase Negative Staphylococcus (GC 4549) [2] | MIC Staphylococcus aureus (ATCC 29213) [2] | MIC Staphylococcus aureus (GC 3051) [2] | MIC Staphylococcus aureus (GC 3053) [2] | MIC Staphylococcus aureus (GC 4541) [2] | MIC Staphylococcus aureus (GC 4542) [2] | MIC Staphylococcus aureus (GC 4545) [2] | MIC Staphylococcus aureus-SMITH (GC 4543) [2] | MIC Staphylococcus haemolyticus (GC 4546) [2] | MIC Enterococcus faecium (GC 4557) [3] | MIC Escherichia coli (GC 4560) [4]
8 µg/mL: MIC Coagulase Negative Staphylococcus (GC 4551) [2] | MIC Staphylococcus aureus (GC 1131) [2] | MIC Staphylococcus aureus (GC 4544) [2] | MIC Enterococcus avium (GC 4558) [3] | MIC Enterococcus faecalis (GC 4553) [3]
16 µg/mL: MIC Enterococcus faecalis (ATCC 29212) [3] | MIC Enterococcus faecalis (GC 2242) [3, 11] | MIC Enterococcus faecalis (GC 4552) [3] | MIC Enterococcus faecalis (GC 6189) [3] | MIC Enterococcus faecium (GC 2243) [3] | MIC Enterococcus faecium (GC 4556) [3] | MIC Enterococcus faecalis (GC 2242) [3, 10]
32 µg/mL: MIC Enterococcus faecalis (GC 2691) [3, 12] | MIC Enterococcus faecalis (GC 3059) [3, 13] | MIC Enterococcus faecalis (GC 4554) [3] | MIC Enterococcus faecalis (GC 2691) [3, 10] | MIC Enterococcus faecalis (GC 3059) [3, 10]
2 µg/mL: MIC Streptococcus agalactiae (GC 4564) [1, 5] | MIC Streptococcus pneumoniae (ATCC 6301) [1, 6] | MIC Streptococcus pneumoniae (GC 4565) [1, 8] | MIC Streptococcus agalactiae (GC 4564) [1, 10] | MIC Streptococcus pneumoniae (ATCC 6301) [1, 10] | MIC Streptococcus pneumoniae (GC 4565) [1, 10] | MIC Coagulase Negative Staphylococcus (GC 6257) [2]
64 µg/mL: MIC Escherichia coli (GC 4559) [4]
0.5 µg/mL: MIC Streptococcus pneumoniae (GC 1894) [1, 7] | MIC Streptococcus pneumoniae (GC 1894) [1, 10]
